Data published in PMC6225165, “Design and Synthesis of Novel Dehydroepiandrosterone Analogues as Potent Antiproliferative Agents” (Molecules : A Journal of Synthetic Chemistry and Natural …, 2018).

Legend:
BEL7402 = assay: MTT antiproliferative assay, BEL7402; format: cell-based, human; settings: 48 h, MTT
Experimental: (§1) The antiproliferative activity of the title compounds against the panel of six different human cancer cell lines, viz. lung (A549), cervix (HeLa), liver (HepG-2), liver (BEL7402), colorectal (HCT116), and breast (MCF-7) cell lines, was evaluated using a standard MTT-based colorimetric assay. All cell lines were obtained from the Key Laboratory of Natural Resources and Functional Molecules of the Changbai Mountain (Yanbian University) and maintained in Dulbecco’s modified Eagle’s medium (DMEM) and RPMI Media 1640 (RPMI1640), supplemented with 10% foetal bovine serum (FBS) at 37 °C in a humidified atmosphere containing 5% CO2.
(§2) Cells were plated in 96-well plates at appropriate densities to ensure exponential growth throughout the experimental period (9 × 10^3 cells per well), and then allowed to adhere for 24 h. Cells were then treated for 48 h with each compound. After 48 h of incubation, 10 μL of MTT solution were added to each well to a final concentration of 2 mg·mL^−1. Plates were then incubated for a further 4 h. After incubation, the MTT solution was removed and 150 μL of DMSO were added to each well for coloration. The plates were shaken vigorously for 10 min at room temperature to ensure complete solubilisation. The optometric density (OD) was read on a microplate reader (EL × 800, BioTek, Highland Park, Winooski, VT, USA) at 492 nm, and the data were subsequently analysed. The percentage of cell growth inhibition was calculated from the following equation:Inhibitory rate (%) = [1 − (ODtreated − ODblank)/(ODcontrol − ODblank)] × 100.
(§3) To obtain the antiproliferative activity of compounds 2a–2w, the compounds were selected in the same way with four serial concentrations (1, 10, 50 and 100 μM) of those compounds. The optometric density (OD) reading was then used to calculate the IC50.

MCF-7 = assay: MTT antiproliferative assay, MCF-7; format: cell-based, human; settings: 48 h, MTT
Experimental: as §1, §2, §3

Hela = assay: MTT antiproliferative assay, Hela; format: cell-based, human; settings: 48 h, MTT
Experimental: as §1, §2, §3

A549 = assay: MTT antiproliferative assay, A549; format: cell-based, human; settings: 48 h, MTT
Experimental: as §1, §2, §3

HCT116 = assay: MTT antiproliferative assay, HCT116; format: cell-based, human; settings: 48 h, MTT
Experimental: as §1, §2, §3

[1] = system: human normal liver (L02) cells; assay: MTT assay on normal cell line L02; format: cell-based; settings: 48 h, MTT; for IC50: normal cell line
HepG-2 = assay: MTT antiproliferative assay, HepG-2; format: cell-based, human; settings: 48 h, MTT
Experimental: as §1, §2, §3

SMILES | % Growth Inhibition at 100 μM BEL7402 (BEL7402; 100 μM) | IC50 (BEL7402) | % Growth Inhibition at 100 μM MCF-7 (MCF-7; 100 μM) | IC50 (MCF-7) | % Growth Inhibition at 100 μM Hela (Hela; 100 μM) | IC50 (Hela) | % Growth Inhibition at 100 μM A549 (A549; 100 μM) | IC50 (A549) | % Growth Inhibition at 100 μM HCT116 (HCT116; 100 μM) | IC50 (HCT116) | % Growth Inhibition at 100 μM L02 ([1]; 100 μM, normal cells) | IC50 [1] | % Growth Inhibition at 100 μM HepG-2 (HepG-2; 100 μM) | IC50 (HepG-2) | also measured
CC12CCC3C(CC=C4CC(O)CCC43C)C1C/C(=C\c1cn(-c3ccc(C(F)(F)F)cc3)nn1)C2=O (stereo not drawn) [Compound 2w, (E)-3-hydroxy-10,13-dimethyl-16-((1-(4-(trifluoromethyl)phenyl)-1H-1,2,3-triazol4-y)methylene)-1,3,4,7,8,9,10,11,12,13,15,16-dodecahydro-2H-cyclopenta[α] phenanthren-17(14H)-one] | 62.2% | 94 µM | 41.3% | > 100 µM | 44.1% | > 100 µM | 75.2% | 72.5 µM | 75.0% | 22.7 µM | 57.6% | 93.7 µM | 48.3% | > 100 µM | 
CC12CCC3C(CC=C4CC(O)CCC43C)C1C/C(=C\c1cn(-c3cccc(Br)c3)nn1)C2=O (stereo not shown) [Compound 2j, (E)-16-((1-(3-bromophenyl)-1H-1,2,3-triazol-4-yl)methylene)-3-hydroxy-10,13-dimethyl-1,3,4,7,8,9,10,11,12,13,15,16-dodecahydro-2H-cyclopenta[a]phenan-thren-17(14H)-one] | 37.6% |  | 42.1% |  | 20.5% |  | NA (NA: antiproliferative activity <5%) |  | 42.0% |  | 43.8% |  | 10.8% |  | 
COc1cccc(-n2cc(/C=C3\CC4C5CC=C6CC(O)CCC6(C)C5CCC4(C)C3=O)nn2)c1 (stereo not shown) [Compound 2r, (E)-3-hydroxy-16-((1-(3-methoxyphenyl)-1H-1,2,3-triazol-4-yl)methylene)-10,13-dimethyl-1,3,4,7,8,9,10,11,12,13,15,16-dodecahydro-2H-cyclopenta[a]phenan-thren-17(14H)-one] | NA (NA: antiproliferative activity <5%) |  | NA (NA: antiproliferative activity <5%) |  | NA (NA: antiproliferative activity <5%) |  | NA (NA: antiproliferative activity <5%) |  | NA (NA: antiproliferative activity <5%) |  | 16.9% |  | NA (NA: antiproliferative activity <5%) |  | 
CC12CCC3C(CC=C4CC(O)CCC43C)C1C/C(=C\c1cn(-c3ccccc3Br)nn1)C2=O (stereo not shown) [Compound 2i, (E)-16-((1-(2-bromophenyl)-1H-1,2,3-triazol-4-yl)methylene)-3-hydroxy-10,13-dimethyl-1,3,4,7,8,9,10,11,12,13,15,16-dodecahydro-2H-cyclopenta[a]phenan-thren-17(14H)-one] | NA (NA: antiproliferative activity <5%) |  | NA (NA: antiproliferative activity <5%) |  | 17.0% |  | NA (NA: antiproliferative activity <5%) |  | 20.2% |  | NA (NA: antiproliferative activity <5%) |  | NA (NA: antiproliferative activity <5%) |  | 
CC12CCC3C(CC=C4CC(O)CCC43C)C1C/C(=C\c1cn(-c3ccc(Cl)c(Cl)c3)nn1)C2=O (stereo not shown) [Compound 2h, (E)-16-((1-(3,4-dichlorophenyl)-1H-1,2,3-triazol-4-yl)methylene)-3-hydroxy-10,13-dimethyl-1,3,4,7,8,9,10,11,12,13,15,16-dodecahydro-2H-cyclopenta[a]phenan-thren-17(14H)-one] | 70.1% | 16 µM | 80.0% | 14.9 µM | 68.7% | 15.1 µM | 70.7% | 17.5 µM | 74.4% | 11.9 µM | 67.9% | 26.4 µM | 48.2% | > 100 µM | 
CC12CCC3C(CC=C4CC(O)CCC43C)C1C/C(=C\c1cn(-c3ccccc3)nn1)C2=O (stereo not shown) [Compound 2a, (E)-3-hydroxy-10,13-dimethyl-16-((1-phenyl-1H-1,2,3-triazol-4-yl)methylene)-1,3,4,7,8,9,10,11,12,13,15,16-dodecahydro-2H-cyclopenta[a]phenanthren-17(14H)-one] |  |  |  |  |  |  |  |  |  |  |  |  |  |  | inhibition at 100 µM (BEL7402; Homo sapiens, Bel-7402, 100 μM, read-out: % Growth Inhibition at 100 μM BEL7402): 12.9%; inhibition at 100 µM (MCF-7; Homo sapiens, MCF7, 100 μM, read-out: % Growth Inhibition at 100 μM MCF-7): < 5%; inhibition at 100 µM (Hela; Homo sapiens, 100 μM, read-out: % Growth Inhibition at 100 μM Hela): < 5%; inhibition at 100 µM (A549; Homo sapiens, A549, 100 μM, read-out: % Growth Inhibition at 100 μM A549): 30.3%; inhibition at 100 µM (HCT116; Homo sapiens, HCT-116, 100 μM, read-out: % Growth Inhibition at 100 μM HCT116): 11.1%; inhibition at 100 µM ([1]; Homo sapiens, L02, 100 μM, normal cells, read-out: % Growth Inhibition at 100 μM L02): 22.3%; inhibition at 100 µM (HepG-2; Homo sapiens, HepG2, 100 μM, read-out: % Growth Inhibition at 100 μM HepG-2): 10.2%
O=c1[nH]cc(F)c(=O)[nH]1 [Compound 5-FU, 5-fluorouracil, reference compound] |  |  |  |  |  |  |  |  |  |  |  |  |  |  | IC50 (BEL7402; Homo sapiens, Bel-7402): 21.3 µM; IC50 (MCF-7; Homo sapiens, MCF7): 28.1 µM; IC50 (HCT116; Homo sapiens, HCT-116): 24.8 µM; IC50 (HepG-2; Homo sapiens, HepG2): 10.6 µM
CC12CCC3C(CC=C4CC(O)CCC43C)C1C/C(=C\c1cn(-c3ccccc3I)nn1)C2=O (stereo not shown) [Compound 2l, (E)-3-hydroxy-16-((1-(2-iodophenyl)-1H-1,2,3-triazol-4-yl)methylene)-10,13-dim-ethyl-1,3,4,7,8,9,10,11,12,13,15,16-dodecahydro-2H-cyclopenta[a]phenanthren-17(14H)-one] | NA (NA: antiproliferative activity <5%) |  | NA (NA: antiproliferative activity <5%) |  | NA (NA: antiproliferative activity <5%) |  | NA (NA: antiproliferative activity <5%) |  | NA (NA: antiproliferative activity <5%) |  | NA (NA: antiproliferative activity <5%) |  | NA (NA: antiproliferative activity <5%) |  | 
COc1ccc(-n2cc(/C=C3\CC4C5CC=C6CC(O)CCC6(C)C5CCC4(C)C3=O)nn2)cc1OC (stereo not shown) [Compound 2t, (E)-16-((1-(3,4-dimethoxyphenyl)-1H-1,2,3-triazol-4-yl)methylene)-3-hydroxy-10,13-dimethyl-1,3,4,7,8,9,10,11,12,13,15,16-dodecahydro-2H-cyclopenta[a]phenan-thren-17(14H)-one] | NA (NA: antiproliferative activity <5%) |  | NA (NA: antiproliferative activity <5%) |  | NA (NA: antiproliferative activity <5%) |  | NA (NA: antiproliferative activity <5%) |  | NA (NA: antiproliferative activity <5%) |  | 9.4% |  | NA (NA: antiproliferative activity <5%) |  | 
CC12CCC3C(CC=C4CC(O)CCC43C)C1C/C(=C\c1cn(-c3ccc(Br)cc3)nn1)C2=O (stereo not shown) [Compound 2k, (E)-16-((1-(4-bromophenyl)-1H-1,2,3-triazol-4-yl)methylene)-3-hydroxy-10,13-di-methyl-1,3,4,7,8,9,10,11,12,13,15,16-dodecahydro-2H-cyclopenta[a]phenan-thren-17(14H)-one] | NA (NA: antiproliferative activity <5%) | > 100 µM | 45.5% | > 100 µM | 30.7% | > 100 µM | 47.8% | > 100 µM | NA (NA: antiproliferative activity <5%) | > 100 µM | 11.1% | > 100 µM | 66.4% | 37.1 µM | 
